Measured values: article PMC6520937 (Viruses, 2019)
Values joined by “and” are separate entries in the source; they are usually repeats but may differ in a detail not shown here. Equal entries are not always repeated. Where two headings read alike, the source gives them in different places.

Tests used:
SFTSV [1] = conditions: read-out: IC50 against SFTSV; cited from earlier work
SFTSV [2] = type: cell-based, Severe fever with thrombocytopenia syndrome virus
SFTSV [3] = experiment: microbe, parasite or virus in culture; type: cell-based; conditions: for IC50: Severe fever with thrombocytopenia syndrome virus
SFTSV [4] = type: cell-based, Severe fever with thrombocytopenia syndrome virus; remark: listed apart in the source
in vitro = conditions: African green monkey
SFTSV [5] = type: cell-based, Severe fever with thrombocytopenia syndrome virus; remark: listed apart in the source
SFTSV [6] = type: cell-based, Severe fever with thrombocytopenia syndrome virus; conditions: pH 5
SFTSV [7] = type: cell-based, Severe fever with thrombocytopenia syndrome virus; remark: listed apart in the source
SFTSV [8] = experiment: microbe, parasite or virus in culture; type: cell-based

| Structure (SMILES) | IC50 (SFTSV [1]) | CC50 (in vitro) | IC99 (SFTSV [3]) | Selectivity Index (CC50/IC50) (SFTSV [3]) | IC50 (SFTSV [3]) | other results |
| --- | --- | --- | --- | --- | --- | --- |
| NC(=O)c1ncn([C@@H]2O[C@H](CO)[C@@H](O)[C@H]2O)n1 [ribavirin] | 40.1 µM |  |  |  |  |  |
| NC(=O)c1nc(F)c[nH]c1=O [favipiravir] | 25 µM |  |  |  |  | fold read-out between drug-treated and DMSO-treated groups by ELISA (SFTSV [2]): > 10 fold and > 15 fold; difference in SFTSV RNA load between drug-treated and DMSO-treated groups (SFTSV [3]): approximately 4 log10; intracellular viral RNA load vs DMSO, drug co-mixed with SFTSV (SFTSV [4]): no statistically significant difference |
| Nc1ccn([C@@H]2O[C@H](CO)[C@@H](O)[C@H]2F)c(=O)n1 [2′-fluoro-2′-deoxycytidine] | 3.7 µM |  |  |  |  |  |
| CC1=NN(c2ccc(C)c(C)c2)C(=O)/C1=N\Nc1cccc(-c2cccc(C(=O)O)c2)c1O [Eltrombopag, eltrombopag] |  | 18.4 ± 0.2 µM | 10.3 ± 3.4 µM | 4.5 | 4.1 ± 0.2 µM |  |
| O=C(O)/C=C/c1ccc(O)c(O)c1 [caffeic acid] | 180 µM |  |  |  |  |  |
| CNC(=O)c1cc(Oc2ccc(NC(=O)Nc3ccc(Cl)c(C(F)(F)F)c3)c(F)c2)ccn1 [Regorafenib, regorafenib] |  | 31.3 ± 0.5 µM | 11.3 ± 0.5 µM | 7.0 | 4.5 ± 0.5 µM |  |
| CCN(CC)Cc1cc(Nc2ccnc3cc(Cl)ccc23)ccc1O [amodiaquine] | 19.1 µM |  |  |  |  |  |
| Oc1cc(Cl)ccc1Oc1ccc(Cl)cc1Cl [Triclosan, triclosan] |  | 17.7 ± 2.9 µM | 8.5 ± 2.1 µM | 5.5 | 3.2 ± 0.4 µM |  |
| Oc1c(Cl)cc(Cl)c(Cl)c1Cc1c(O)c(Cl)cc(Cl)c1Cl [Hexachlorophene, hexachlorophene] |  | 24.3 ± 3.2 µM | 7.5 ± 1.2 µM | 18.7 | 1.3 ± 0.3 µM | inhibitory activity on virus attachment, cells pretreated with drug (SFTSV [5]): no significant; syncytium formation in SFTSV-infected cells (SFTSV [6]): dramatically inhibited; virus infectivity after pre-incubation of SFTSV with drug (SFTSV [7]): not significantly; IC50 (SFTSV [3]; read-out: IC50 against SFTSV): 1.3 to 2.6 µM; plaque reduction (SFTSV [8]): 100%; IC50 (SFTSV [8]; Severe fever with thrombocytopenia syndrome virus, Vero, read-out: IC50, plaque reduction assay): 2.6 ± 0.14 µM; intracellular viral RNA load vs DMSO, drug co-mixed with SFTSV (SFTSV [4]): Significantly lower viral RNA load |
| Oc1c(Br)cc(Br)c2cccnc12 [Broxyquinoline, broxyquinoline] |  | 36.4 ± 5.5 µM | 16.3 ± 4.3 µM | 6.3 | 5.8 ± 1.3 µM |  |
